# Results: patent publication US20210052598A1, “COMPOSITIONS AND METHODS FOR TREATING CANCER” (Beth Israel Deaconess Medical Center, Inc., priority 2018, published 2021)
# “Also recorded” adds a separate entry of the source. Where a SMILES comes first, the peptide text is derived from it. The star is where a group is joined. Cbz = O=C(OCc1ccccc1)*
# How the values were obtained:
# IDH1 and IDH2 [1] = test: Fractionation of cytoplasm, mitochondria and nuclei with immunoblot, 22Rv1 cells; format: cell-based, human; conditions: 10 μM for 24 hours
# Protocol: LNCaP cells were treated with 0, 1, 3, 10 or 30 μM SKPin C1 for 24 hours, harvested for immunoblot analysis of indicated proteins. […] 22Rv1 cells were treated with 10 μM SKPin C1 for 24 hours, harvested for fraction of cytoplasm (C), mitochondria (M), and nuclei (N), followed by immunoblot analysis of indicated proteins. FIG. 11C is a graph showing depletion of endogenous ID111 or IDH2 abolishes the effect of SKPin C1 on OCR. HAP1-IDH1^−/−, IDH2^−/− and parental cells were treated with 3 μM SKPin C1 for 24 hours, followed by OCR analysis by Seahorse XF 24 analyzer. The concentration of oligomycin, FCCP and antimycin A are 1 μM, 0.6 μM and 3 μM, respectively (mean±s.e.m, n=3). […] HAP1-Skp2^+/+ and Skp2^−/− cells were treated with indicated SKPin C1 for 24 hours, followed by immunoblot analysis for indicated proteins. […] Statistical analysis, ** p<0.01. […] Statistical analysis, * p<0.05, ** p<0.01. […] HAP1-Skp2^+/+ and Skp2^−/− cells were treated with 1 μM SKPin C1 for 24 hours, followed by ECAR analysis by Seahorse XF 24 analyzer. […] HAP1-Skp2^+/+ and Skp2^−/− cells were treated with 1 μM SKPin C1 for 24 hours, followed by OCR analysis by Seahorse XF 24 analyzer. The concentration of oligomycin, FCCP and antimycin A are 1 μM, 0.6 μM and 3 μM, respectively (mean±s.e.m, n=3, ** p<0.01, *** p<0.001).
# Cells were harvested and subjected to fractionation of cytoplasm (C), mitochondria (M), and nuclei (N) using Cell Fractionation kit (ab109719, Abcam). All fractions and the whole cell lysate (WCL) were subjected to immunoblot analysis for the indicated proteins, with tubulin, citrate synthase, and Histone H3 as markers of cytoplasm, mitochondria, and nucleus, respectively.
# LNCaP cells = test: Colony formation assay, LNCaP cells; format: cell-based, human; conditions: 1500 cell/well, 0, 0.1, 0.3, or 1 μM for 7 days, fresh media another 3 weeks
# Protocol: (§1) 22-Rv1 cells were treated with 0, 1, 3, 10, or 30 μM SKPin C1 for 24 hours, and then harvested for immunoblot analysis. […] LNCaP and 22-Rv1 cells were plated in 6-well plate (1500 cell/well), treated with 0, 0.1, 0.3, or 1 μM Skin C1 for 7 days, and changed to fresh media for another 3 weeks. […] HAP1-IDH1^−/−, HAP1-IDH2^−/− and parental cells were treated with 3 μM SKPin C1 for 24 hours, followed by OCR analysis by Seahorse XF 24 analyzer. * p<0.05.
# (§2) Cells were cultured in 10% FBS containing DMEM or RPMI-1640 media before plating into 6-well plate at 10,000 cells (3,000 cells for HeLa) per well. Ten days later, cells were fixed with 10% acetic acid/10% methanol for 10 min, stained with 0.4% crystal violet/20% ethanol, followed by counting the colony numbers. For soft agar assays, cells were seeded in 0.4% low-melting-point agarose in DMEM or RPMI-1640 with 10% FBS at 100,000 per well (30,000 cells for HeLa), layered onto 0.8% agarose in DMEM or RPMI-1640 with 10% FBS. The plates were kept in the cell culture incubator for 3-4 weeks after which the cells were stained with iodonitrotetrazolium chloride and colonies were counted.
# IDH1 and IDH2 [2] = test: Immunoblot of IDH1 and IDH2 after SKPin C1 treatment, LNCaP cells; format: cell-based, human; conditions: LNCaP cells, 0, 1, 3, 10 or 30 μM for 24 hours
# Protocol: (§3) LNCaP cells were treated with 0, 1, 3, 10 or 30 μM SKPin C1 for 24 hours, harvested for immunoblot analysis of indicated proteins. […] 22Rv1 cells were treated with 10 μM SKPin C1 for 24 hours, harvested for fraction of cytoplasm (C), mitochondria (M), and nuclei (N), followed by immunoblot analysis of indicated proteins. FIG. 11C is a graph showing depletion of endogenous ID111 or IDH2 abolishes the effect of SKPin C1 on OCR. HAP1-IDH1^−/−, IDH2^−/− and parental cells were treated with 3 μM SKPin C1 for 24 hours, followed by OCR analysis by Seahorse XF 24 analyzer. The concentration of oligomycin, FCCP and antimycin A are 1 μM, 0.6 μM and 3 μM, respectively (mean±s.e.m, n=3). […] HAP1-Skp2^+/+ and Skp2^−/− cells were treated with indicated SKPin C1 for 24 hours, followed by immunoblot analysis for indicated proteins. […] Statistical analysis, ** p<0.01. […] Statistical analysis, * p<0.05, ** p<0.01. […]
# (§4) Cells were lysed in EBC buffer (50 mM Tris pH 7.5, 120 mM NaCl, 0.5% NP-40) supplemented with protease inhibitors (cOmplete Mini, Roche) and phosphatase inhibitors (phosphatase inhibitor cocktail set I and II, Calbiochem). The protein concentrations of the lysates were measured using the Bio-Rad protein assay reagent on a Beckman Coulter DU-800 spectrophotometer. […]
# IDH1 and IDH2 [3] = test: Immunoblot of IDH1 and IDH2 after SKPin C1 treatment, 22-Rv1 cells; format: cell-based, human; conditions: 22-Rv1 cells, 0, 1, 3, 10, or 30 μM for 24 hours
# Protocol: as §1
# HeLa and HCT116 cells were used for synchronization. HeLa cells, which have low endogenous Skp2 activity, were used for ectopic expression-based degradation assays. HEK293 cell line was used for ubiquitination assays and co-IP assays to define the interaction between two ectopically expressed proteins, which is the most frequently used cell line for this type of experiment. Human prostate cancer cells, DU145, PC3, LNCaP, VCaP, 22Rv1 and C4-2 were used for compared endogenous Skp2 and IDH1 levels, as well as Skp2 knockdown and Skp2 overexpression. […]
# as §4
# 22-Rv1 cells = test: Colony formation assay, 22-Rv1 cells; format: cell-based, human; conditions: 22-Rv1, 1500 cell/well, 0, 0.1, 0.3, or 1 μM for 7 days, fresh media another 3 weeks
# Protocol: as §1, §2
# HAP1 cells [4] = test: Seahorse XF24 oxygen consumption rate (OCR) analysis, HAP1 cells; format: cell-based, human
# Protocol: (§5) LNCaP cells were treated with 0, 1, 3, 10 or 30 μM SKPin C1 for 24 hours, harvested for immunoblot analysis of indicated proteins. […] 22Rv1 cells were treated with 10 μM SKPin C1 for 24 hours, harvested for fraction of cytoplasm (C), mitochondria (M), and nuclei (N), followed by immunoblot analysis of indicated proteins. FIG. 11C is a graph showing depletion of endogenous ID111 or IDH2 abolishes the effect of SKPin C1 on OCR. HAP1-IDH1^−/−, IDH2^−/− and parental cells were treated with 3 μM SKPin C1 for 24 hours, followed by OCR analysis by Seahorse XF 24 analyzer. The concentration of oligomycin, FCCP and antimycin A are 1 μM, 0.6 μM and 3 μM, respectively (mean±s.e.m, n=3). […] HAP1-Skp2^+/+ and Skp2^−/− cells were treated with indicated SKPin C1 for 24 hours, followed by immunoblot analysis for indicated proteins. […] Statistical analysis, ** p<0.01. […] Statistical analysis, * p<0.05, ** p<0.01. […] HAP1-Skp2^+/+ and Skp2^−/− cells were treated with 1 μM SKPin C1 for 24 hours, followed by ECAR analysis by Seahorse XF 24 analyzer. […] HAP1-Skp2^+/+ and Skp2^−/− cells were treated with 1 μM SKPin C1 for 24 hours, followed by OCR analysis by Seahorse XF 24 analyzer. […]
# (§6) Oxygen consumption rate (OCR) and extracellular acidification rate (ECAR) were measured using Seahorse XF24 analyzer (Boston, Mass., USA). […]
# IDH1 and IDH2 [5] = test: Immunoblot of IDH1 and IDH2 in HAP1-Skp2+/+ and Skp2-/- cells; format: cell-based, human; conditions: 24 hours
# Protocol: as §3, §4
# HAP1 cells [6] = test: Seahorse XF24 extracellular acidification rate (ECAR) analysis, HAP1 cells; format: cell-based, human; conditions: 1 μM for 24 hours
# Protocol: as §5, §6
# IDH1 and IDH2 [7] = test: Immunoblot of IDH1 and IDH2 after MG132 or MLN4924, RWPE1 cells; format: cell-based; conditions: 10 μM for 8 hours
# Protocol: RWPE1 cells were incubated with 10 μM MG132 or MLN4924 for 8 hours, followed by immunoblot analysis of IDH1 and IDH2. FIG. 16B are immunoblots showing that IDH1 specifically interacts with Cullin 1 in cells. Immunoblot analysis of immunoprecipitates (IP) and whole cell lysates (WCL) derived from HEK293 cells transfected with Flag-IDH1 and the indicated Myc-tagged Cullins for 48 hours. FIG. 16C are immunoblots showing that IDH1 specifically interacts with two F-box proteins, Skp2, and to a lesser extent, Fbw4, in cells. Immunoblot analysis of IP and WCL derived from HEK293 cells transfected with Flag-IDH1 and the indicated CMV-GST-tagged F-box proteins for 48 hours. FIG. 16D are immunoblots showing depletion of SKP2 in HeLa cells leads to accumulated IDH1. […] The labeled glycolytic intermediates were measured using HPLC-MS. n=3, * p<0.05, ** p<0.01, ***p<0.001. […] The labeled TCA cycle intermediates were measured using HPLC-MS. n=3, * p<0.05, ** p<0.01, *** p<0.001.
# as §4
Compound,IDH1 localization after treatment (IDH1 and IDH2 [1]),IDH2 localization after treatment (IDH1 and IDH2 [1]),IDH1 and IDH2 protein abundance in cell fractions (IDH1 and IDH2 [1]; cytoplasm/mitochondria/nuclei fractions),Colony growth (LNCaP cells),IDH1 and IDH2 protein abundance (immunoblot) (IDH1 and IDH2 [2]),IDH1 and IDH2 protein abundance (immunoblot) (IDH1 and IDH2 [3]),Colony growth (22-Rv1 cells),Effect on OCR in HAP1-Skp2+/+ and Skp2-/- cells (HAP1 cells [4]; 1 μM for 24 hours),"Effect on OCR in HAP1-IDH1-/-, HAP1-IDH2-/- and parental cells (HAP1 cells [4]; 3 μM for 24 hours)",Effect on IDH1 and IDH2 in HAP1-Skp2+/+ and Skp2-/- cells (IDH1 and IDH2 [5]),Effect on ECAR in HAP1-Skp2+/+ and Skp2-/- cells (HAP1 cells [6]),IDH1 and IDH2 protein abundance (immunoblot) (IDH1 and IDH2 [7])
O=C(O)COc1ccc(Br)cc1/C=C1\SC(=S)N(Cc2cccnc2)C1=O [SKPin C1],mainly localized in the cytoplasmic fraction regardless of SKPin C1 treatment,detected in the cytoplasmic fraction,accumulated protein abundance of IDH1 and IDH2 in cytoplasm,blocks the colony growth,significantly stabilized both IDH1 and IDH2; also recorded: accumulated protein abundance of IDH1 and IDH2,significantly stabilized both IDH1 and IDH2; also recorded: robust accumulation of IDH1 and IDH2,blocks the colony growth,depletion of Skp2 abolishes the effect of SKPin C1 on OCR,depletion of endogenous IDH1 or IDH2 abolishes the effects of SKPin C1 on OCR,depletion of Skp2 abolishes the effect of SKPin C1 on IDH1 and IDH2,depletion of Skp2 abolishes the effect of SKPin C1 on ECAR,–
CC(C)C[C@@H](C=O)NC(=O)[C@H](CC(C)C)NC(=O)[C@H](CC(C)C)NC(=O)OCc1ccccc1 [MG132] (Cbz-Leu-Leu-Leu-aldehyde),–,–,–,–,–,–,–,–,–,–,–,elevated; also recorded: accumulation of IDH1 and IDH2
NS(=O)(=O)OC[C@@H]1C[C@@H](n2ccc3c(N[C@H]4CCc5ccccc54)ncnc32)C[C@@H]1O [MLN4924],–,–,–,–,–,–,–,–,–,–,–,elevated; also recorded: accumulation of IDH1 and IDH2
